According to article PMC8518114, “Safety, tolerability and pharmacokinetics of emodepside, a potential novel treatment for onchocerciasis (river blindness), in healthy male subjects” (British Journal of Clinical Pharmacology, 2021):

Tested on: healthy male subjects
Experiment: Safety: treatment-emergent adverse events, MAD study
Format: in vivo, human
Protocol: Safety was assessed by monitoring adverse events (AEs) throughout the studies that were coded using the standard Medical Dictionary for Regulatory Activities (MedDRA) dictionary (versions 19.0 [SAD part 1], 20.0 [SAD part 2] and 21.1 [MAD]). Other safety monitoring included 12‐lead electrocardiography recordings, measurement of vital signs (systolic and diastolic blood pressure and heart rate), physical and neurological (Hamilton depression rating scale[17] and Beck depression inventory‐II fastscreen[18] [SAD only], mental status examination, cranial nerves assessment and motor system examination, sensation to light touch, coordination/cerebellar function assessment, Romberg's test, gait test, daytime sleepiness assessment [SAD and MAD studies]) examinations, haematology, biochemistry and urinalysis. To minimise risks in the SAD and MAD studies, subjects were dosed sequentially using sentinels in each cohort (1 IP, 1 placebo) as per European Medicines Agency guidelines.[19] If the previous dose was well tolerated, with no safety concerns, dose escalation was decided by the Safety Review Group after reviewing safety and PK data from all available cohorts. Moreover, treatment with the highest dose in the SAD study was repeated (cohort 10) for regular ophthalmological evaluations (assessments available as supplementary information) to better characterise visual AEs observed in the SAD study. Regular ophthalmological assessments were also performed in the MAD study.

CC(C)C[C@H]1C(=O)O[C@H](Cc2ccc(N3CCOCC3)cc2)C(=O)N(C)[C@@H](CC(C)C)C(=O)O[C@H](C)C(=O)N(C)[C@@H](CC(C)C)C(=O)O[C@H](Cc2ccc(N3CCOCC3)cc2)C(=O)N(C)[C@@H](CC(C)C)C(=O)O[C@H](C)C(=O)N1C [emodepside]
6 (100.0) n (%): Any TEAE (LSF 10 mg OD n = 6)
4 (66.7) n (%): TEAE: Infections and infestations (LSF 5 mg OD n = 6) | TEAE: Infections and infestations (LSF 10 mg OD n = 6)
1 (16.7) n (%): TEAE: General disorders and administration site disorders (LSF 5 mg OD n = 6) | TEAE: Respiratory, thoracic and mediastinal disorders (LSF 5 mg OD n = 6) | TEAE: Skin and subcutaneous tissue disorders (LSF 5 mg OD n = 6) | TEAE: General disorders and administration site disorders (LSF 10 mg BID n = 6) | TEAE: Immune system disorders (LSF 10 mg BID n = 6) | TEAE: Injury, poisoning and procedural complications (LSF 10 mg BID n = 6) | TEAE: Investigations (LSF 10 mg BID n = 6) | TEAE: Musculoskeletal and connective tissue disorders (LSF 10 mg BID n = 6) | TEAE: Eye disorders (LSF 10 mg OD n = 6) | TEAE: General disorders and administration site disorders (LSF 10 mg OD n = 6) | TEAE: Metabolism and nutrition disorders (LSF 10 mg OD n = 6) | TEAE: Psychiatric disorders (LSF 10 mg OD n = 6) | TEAE: Skin and subcutaneous tissue disorders (LSF 10 mg OD n = 6) | TEAE: Surgical and medicinal procedures (LSF 10 mg OD n = 6)
0 n (%): TEAE: Immune system disorders (LSF 5 mg OD n = 6) | TEAE: Injury, poisoning and procedural complications (LSF 5 mg OD n = 6) | TEAE: Investigations (LSF 5 mg OD n = 6) | TEAE: Metabolism and nutrition disorders (LSF 5 mg OD n = 6) | TEAE: Surgical and medicinal procedures (LSF 5 mg OD n = 6) | TEAE: Gastrointestinal disorders (LSF 10 mg BID n = 6) | TEAE: Metabolism and nutrition disorders (LSF 10 mg BID n = 6) | TEAE: Nervous system disorders (LSF 10 mg BID n = 6) | TEAE: Psychiatric disorders (LSF 10 mg BID n = 6) | TEAE: Respiratory, thoracic and mediastinal disorders (LSF 10 mg BID n = 6) | TEAE: Skin and subcutaneous tissue disorders (LSF 10 mg BID n = 6) | TEAE: Surgical and medicinal procedures (LSF 10 mg BID n = 6) | TEAE: Gastrointestinal disorders (LSF 10 mg OD n = 6) | TEAE: Immune system disorders (LSF 10 mg OD n = 6) | TEAE: Injury, poisoning and procedural complications (LSF 10 mg OD n = 6) | TEAE: Investigations (LSF 10 mg OD n = 6) | TEAE: Nervous system disorders (LSF 10 mg OD n = 6) | TEAE: Respiratory, thoracic and mediastinal disorders (LSF 10 mg OD n = 6)
6 (100) n (%): Any TEAE (LSF 10 mg BID n = 6)
2 (33.3) n (%): TEAE: Gastrointestinal disorders (LSF 5 mg OD n = 6) | TEAE: Musculoskeletal and connective tissue disorders (LSF 5 mg OD n = 6) | TEAE: Nervous system disorders (LSF 5 mg OD n = 6) | TEAE: Psychiatric disorders (LSF 5 mg OD n = 6) | TEAE: Musculoskeletal and connective tissue disorders (LSF 10 mg OD n = 6)
5 (83.3) n (%): Any TEAE (LSF 5 mg OD n = 6)
3 (50.0) n (%): TEAE: Eye disorders (LSF 5 mg OD n = 6) | TEAE: Eye disorders (LSF 10 mg BID n = 6)
